According to patent publication US9980927B2, “Use of tapentadol for inhibiting and/or treating depression and anxiety” (Gruenenthal GmbH, priority 2011, dated 2018):

What was measured:
[1] = test system: patients with inadequately managed, severe chronic low back pain with or without a neuropathic pain component; assay: Subject satisfaction with previous/new treatment, same trial; assay type: in vivo, human patients; details: 0.0% at Baseline
Excerpt: (§1) This was a multicenter, multinational, open-label, effectiveness phase IIIb trial to evaluate effectiveness and safety of tapentadol prolonged release treatment in patients with inadequately managed, severe chronic low back pain with or without a neuropathic pain component. Patients taking WHO Step II analgesics discontinued those analgesics before starting study medication; patients taking Step I analgesics and/or centrally acting co-analgesics continued on the same dose. […] All patients received tapentadol prolonged release (50-250 mg bid) for up to 12 weeks (5-week titration period and a 7-week maintenance period). Tapentadol immediate release (IR) 50 mg (twice a day, hours apart) was permitted (combined total daily dose of tapentadol prolonged release and tapentadol IR, 500 mg/day). The primary efficacy endpoint was the change from Baseline to Week 6 (when tapentadol prolonged release doses were stable) in average pain intensity on the 11-point NRS-3 using the last observation carried forward (LOCF) for imputing missing scores. The painDETECT questionnaire was used to evaluate the likelihood of a neuropathic pain component of low back pain; patients were classified as painDETECT “negative,” “unclear,” or “positive.” The population of patients classified as painDETECT negative was limited to approximately 30% of the total population.

[2] = test system: patients with inadequately managed, severe chronic low back pain with or without a neuropathic pain component; assay: Clinical global impression of change (CGIC), same trial; assay type: in vivo, human patients
Excerpt: as §1
All subjects completed Short Form-36 (SF-36) and EuroQol-5 Dimension (EQ-5D) questionnaires and the Hospital Anxiety and Depression Scale (HADS). The Patient Global Impression of Change (PGIC) and Clinical global impression of change (CGIC) were also used as secondary endpoints. For both tests, patients completed the statement, “since I began trial treatment, I would rate my overall condition as,” using 7 possible responses (“very much worse” to “very much improved”). Adverse events were recorded throughout the trial.

## CC[C@@H](c1cccc(O)c1)[C@@H](C)CN(C)C [tapentadol, (−)-(1R,2R)-3-(3-dimethylamino-1-ethyl-2-methyl-propyl)-phenol]
[1]; Week 6 (41/138)
  percentage of patients rating satisfaction with treatment “excellent” or “very good”: 29.7%
[1]; Week 12 (48/91)
  percentage of patients rating satisfaction with treatment “excellent” or “very good”: 52.8%
[2]; Week 1 (26/172)
  percentage of patients reporting “very much improved” or “much improved” on the CGIC: 15.1%
[2]; Week 6 (70/138)
  percentage of patients reporting “very much improved” or “much improved” on the CGIC: 50.7%
[2]; Week 12 (62/91)
  percentage of patients reporting “very much improved” or “much improved” on the CGIC: 68.2%
